Data on 10 molecules can be found in publication PMC6827013, “Alpha-Glucosidase and Alpha-Amylase Inhibitory Activities of Novel Abietane Diterpenes from Salvia africana-lutea” (Antioxidants, 2019).

Experiment [1] deals with α-glucosidase (Saccharomyces cerevisiae). Kind of experiment: Alpha-glucosidase inhibitory activity (p-NPG substrate, absorbance 405 nm). The format is biochemical. As to conditions: mean ± SEM, n = 3; NA = not active at the test concentrations. As to the method:
Alpha-glucosidase inhibitory activity of the isolated compounds was carried out according to the standard method, with a slight modification. […] Next, 20 μL of p-NPG (5 mM) was added as a substrate and incubated further at 37 °C for 20 min. The reaction was stopped by adding 50 μL of sodium carbonate Na2CO3 (0.1 M). […] Each experiment was performed in triplicates. […] Inhibitory activity (%) = (1 − A/B) ×100(1) where A is the absorbance in the presence of the test substance and B is the absorbance of the control.

The nature of experiment [2]: Ferric-ion reducing antioxidant power (FRAP) assay. The settings on record: ascorbic acid equivalents; mean ± SEM, n = 3. The method, then: The FRAP assay was carried out in accordance with the method described previously. […] L-Ascorbic acid was used as a standard, and the results were expressed as µmole ascorbic acid equivalents per […] of dry weight (μM AAE/g DW) of the test samples.
The in vitro antioxidant activity of the isolated compounds of the methanolic extract of S. africana-lutea were investigated by evaluating their ferric-ion reducing antioxidant power (FRAP), trolox equivalent absorbance capacity (TEAC), and oxygen radical absorbance capacity (ORAC) activities. […] Nevertheless, other aspects can be considered, for example, the presence of vicinal hydroxyl groups is essential in a pronounced antioxidant activity. […] It has been shown that the phenolic group at the 11 position would be more implicated in the antioxidant activity. In general, phenolic compounds are expected to transfer electrons or donate protons to the reactive radicals because of the resonance stability of the phenoxy radical.

Experiment [3] can be described thus: Oxygen radical absorbance capacity (ORAC) assay. From the text:
ORAC assay was done according to the previous method. ORAC values were expressed as micromoles of trolox equivalents (TE) per milligram of the test sample. Samples without a perfect curve were further diluted, and the dilution factors were used in the calculations of such samples.
(§1) The in vitro antioxidant activity of the isolated compounds of the methanolic extract of S. africana-lutea were investigated by evaluating their ferric-ion reducing antioxidant power (FRAP), trolox equivalent absorbance capacity (TEAC), and oxygen radical absorbance capacity (ORAC) activities. […] Phenolic compounds have been reported to be responsible for the antioxidant activity of numerous plant species by stabilization of radicals by donating electrons or by metal ion complexation, among other mechanisms. Nevertheless, other aspects can be considered, for example, the presence of vicinal hydroxyl groups is essential in a pronounced antioxidant activity. Abietane diterpenes are known for having strong antioxidant activity due to the presence of ortho-dihydroxyl groups/vicinal hydroxyls in the aromatic ring that serve as hydrogen and/or electron donating agents to the corresponding reactive species leading to the formation of the stable quinone derivatives. It has been shown that the phenolic group at the 11 position would be more implicated in the antioxidant activity. In general, phenolic compounds are expected to transfer electrons or donate protons to the reactive radicals because of the resonance stability of the phenoxy radical.

Experiment [4] is described as follows: Trolox equivalent absorbance capacity (TEAC) assay. As to the method:
The total anti-oxidant activity of the test sample was measured using previously described methods. Absorbance was read at 734 nm at 25 °C in a plate reader, and the results were expressed as μmole Trolox equivalents per […] of dry weight (μM TE/g DW) of the test samples.
as §1

The target in experiment [5] is T1, α-amylase (procaine pancreas) (Sus scrofa, UniProt P00690).
T1 construct: α-amylase (procaine pancreas); purchased Sigma-Aldrich, Cape town, South Africa; host or cells: pancreas
T1 sequence (P00690 16-511): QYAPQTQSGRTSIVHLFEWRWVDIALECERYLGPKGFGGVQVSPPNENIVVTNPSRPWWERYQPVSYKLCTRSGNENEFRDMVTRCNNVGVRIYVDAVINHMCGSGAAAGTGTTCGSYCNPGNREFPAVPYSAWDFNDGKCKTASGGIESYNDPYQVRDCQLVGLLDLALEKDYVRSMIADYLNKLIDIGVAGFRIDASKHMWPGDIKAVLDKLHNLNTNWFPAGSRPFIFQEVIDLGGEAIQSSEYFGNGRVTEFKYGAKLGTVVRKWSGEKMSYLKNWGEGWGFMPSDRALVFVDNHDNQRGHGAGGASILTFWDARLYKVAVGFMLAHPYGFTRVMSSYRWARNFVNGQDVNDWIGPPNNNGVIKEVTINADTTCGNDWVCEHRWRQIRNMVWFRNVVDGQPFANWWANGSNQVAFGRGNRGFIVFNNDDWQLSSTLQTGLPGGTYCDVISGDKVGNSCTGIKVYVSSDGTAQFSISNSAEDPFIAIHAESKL
Kind of experiment: Alpha-amylase inhibitory activity (starch substrate, DNS, absorbance 540 nm). The format is biochemical. As to conditions: mean ± SEM, n = 3; NA = not active at the test concentrations.
Method: The alpha-amylase inhibitory activity of the extract and fractions was carried out according to the standard method, with a slight modification [24]. In a 96-well plate, the reaction mixture containing 50 μL of phosphate buffer (100 mM, pH = 6.8), 10 μL alpha amylase (2 U/mL), and 20 μL of varying concentrations of isolated compounds was pre-incubated at 37 °C for 20 min. Next, 20 μL of 1% soluble starch (100 mM phosphate buffer pH 6.8) was added as a substrate and incubated further at 37 °C for 30 min. A volume of 100 μL of the color reagent (DNS) was added and then boiled for 10 min. The absorbance of the resulting mixture was measured at 540 nm using a Multiplate Reader (Multiskan thermo scientific, version 1.00.40). […] Each experiment was performed in triplicates. The results were expressed as the percentage inhibition, which was calculated using Formula (2). Inhibitory activity (%) = (1 − A/B) ×100(2) where A is the absorbance in the presence of the test substance and B is the absorbance of the control.

[6] abbreviates: Trolox equivalents, mean ± SEM, n = 3, NA = not active at the test concentrations.

Read-outs that look alike come from different tables or passages of the source.

`CC1CCC23CCC4(C)C5(C)CCC6C(C)(C)C(O)CCC6(C)C5C=CC4(OC2=O)C3C1C` (stereo not shown) [Compound 9, 11,12-dehydroursolic acid lactone]: the “Alpha-Glucosidase IC50” value in experiment [1] amounted to 85.8 ± 2.3 µg/mL. In experiment [2], the FRAP turned out to be 283.4 ± 3.9 µM AAE/g.

On to `O=C(O[C@@H]1Cc2c(O)cc(O)cc2O[C@@H]1c1cc(O)c(O)c(O)c1)c1cc(O)c(O)c(O)c1` [EGCG, Epigallocatechingallate, reference compound], for which the ORAC in experiment [3] (setting [6]) was 3976.8 ± 3.8 µmole TE/g. Also, the TEAC in experiment [4] (setting [6]) came out at 4146.4 ± 19.8 µmole TE/g. Besides, in experiment [2], the FRAP was found to be 7525.0 ± 4.9 µM AAE/g.

Consider `COc1c(C(C)C)cc2c(c1O)C13CCCC(C)(COC(C)=O)C1CC2OC3=O` (stereo not shown) [Compound 4, 19-acetoxy-12-methoxy carnosol], for which, in experiment [3] (setting [6]), the ORAC is 559.7 ± 15.2 µmole TE/g. Besides, the TEAC in experiment [4] (setting [6]) came to 440.1 ± 1.5 µmole TE/g. The FRAP in experiment [2] amounted to 1257.0 ± 6.7 µM AAE/g.

On to `COc1c(C(C)C)cc2c(c1O)[C@]13CCC[C@](C)(C(O)OC1=O)C3CC2` (stereo partly shown) [Compound 6, clinopodiolide B], for which the “Alpha-Glucosidase IC50” value in experiment [1] was 81.7 ± 2.1 µg/mL. Also, the ORAC in experiment [3] (setting [6]) amounted to 1502.5 ± 21.2 µmole TE/g. Moreover, the figures for the TEAC in experiment [4] and in experiment [4] (setting [6]) were 705.5 ± 2.0 µM TE/g and 724.9 ± 1.3 µmole TE/g, respectively. For the same molecule, the FRAP in experiment [2] is recorded as 1480.0 ± 3.9 µM AAE/g.

For the molecule `CC(C)c1cc2c(c(O)c1O)[C@]13CCC[C@](C)(C(O)OC1=O)C3CC2` (stereo partly shown) [Compound 5, clinopodiolide A], in experiment [3] (setting [6]), the ORAC came out at 2357.2 ± 0.1 µmole TE/g. Further, the TEAC in experiment [4] stood at 862.2 ± 1.4 µM TE/g; in experiment [4] (setting [6]) it was 862.2 ± 1.4 µmole TE/g. Further, the FRAP in experiment [2] was 2262.9 ± 11.0 µM AAE/g.

For the molecule `COC1c2cc(C(C)C)c(O)c(O)c2C23CCC(OC(C)=O)C(C)(C)C2C1OC3=O` (stereo not drawn) [Compound 2, 3β-acetoxy-7α-methoxyrosmanol], the ORAC in experiment [3] (setting [6]) amounted to 2233.9 ± 8.0 µmole TE/g. The TEAC in experiment [4] (setting [6]) was found to be 635.7 ± 0.8 µmole TE/g. Further, the FRAP in experiment [2] is 2200.9 ± 14.2 µM AAE/g.

In the case of `COC1c2cc(C(C)C)c(O)c(O)c2C23CCCC(C)(COC(C)=O)C2C1OC3=O` (stereo not drawn) [Compound 3, 19-acetoxy-7α-methoxyrosmanol], in experiment [3] (setting [6]), the ORAC is on record as 735.4 ± 2.0 µmole TE/g. The TEAC in experiment [4] (setting [6]) was found to be 124.4 ± 0.6 µmole TE/g. In experiment [2], the FRAP is 1440.4 ± 9.1 µM AAE/g.

For `COc1c(C(C)C)cc2c(c1O)[C@@]1(C(=O)O)CCC[C@](C)(COC(C)=O)C1CC2` (stereo partly shown) [Compound 1, 19-acetoxy-12-methoxycarnosic acid], the ORAC in experiment [3] turned out to be 2588.2 ± 10.1 µM TE/g; in experiment [3] (setting [6]) it was 2588.2 ± 10.1 µmole TE/g. For the same molecule, the TEAC in experiment [4] (setting [6]) is reported as 694.0 ±1.6 µmole TE/g. Moreover, the FRAP in experiment [2] came to 1217.4 ± 2.9 µM AAE/g.

In the case of `CC1(C)CC[C@]2(C(=O)O)CC[C@]3(C)C(=CC[C@@H]4[C@@]5(C)CC[C@H](O)C(C)(C)[C@@H]5CC[C@]43C)[C@@H]2C1` [Compound 7, oleanolic acid], the FRAP in experiment [2] stood at 347.8 ± 3.7 µM AAE/g.

Consider `CC1(C)CC[C@]2(C)CC[C@]3(C)C(=CC[C@@H]4[C@@]5(C)CC[C@H](O)C(C)(C)[C@@H]5CC[C@]43C)[C@@H]2C1` [Compound 10, β-amyrin], for which the “Alpha-Glucosidase IC50” value in experiment [1] was found to be 17.1 ± 1.0 µg/mL. The IC50 in experiment [5] is 180 µM. Moreover, in experiment [2], the FRAP is 412.2 ± 13.0 µM AAE/g.
